In one test the test system is Staphylococcus aureus. Nature of the test: Antimicrobial activity against Staphylococcus aureus ATCC 6538p after 24 hrs by microtiter plate assay. It counts as functional.
In the next test the target is T1, Peptide deformylase (Pseudomonas aeruginosa (strain ATCC 15692 / PAO1 / 1C / PRS 101 / LMG12228), UniProt Q9I7A8).
T1 sequence (Q9I7A8 whole entry): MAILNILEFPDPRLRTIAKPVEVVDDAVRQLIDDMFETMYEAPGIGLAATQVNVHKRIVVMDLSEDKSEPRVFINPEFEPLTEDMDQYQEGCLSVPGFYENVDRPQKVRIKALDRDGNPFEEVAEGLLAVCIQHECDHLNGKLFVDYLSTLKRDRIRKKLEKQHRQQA
Nature of the test: Inhibition of Pseudomonas aeruginosa peptide deformylase after 10 mins by fluorescence assay.

In the next test the test system is Moraxella catarrhalis. Nature of the test: Antimicrobial activity against Moraxella catarrhalis ATCC 43617 after 48 hrs by microtiter plate assay. It counts as functional. Particulars: ATCC 43617, 48 h.
The subject of another test is Streptococcus pneumoniae. Nature of the test: Antimicrobial activity against Streptococcus pneumoniae ATCC 6305 after 48 hrs by microtiter plate assay. It counts as functional. As to conditions: ATCC 6305, 48 h.
Another test has as its system Haemophilus influenzae. Put plainly: Antimicrobial activity against Haemophilus influenzae ATCC 51907 after 24 hrs by microtiter plate assay. Particulars: ATCC 51907, 24 h. It counts as functional.

≈ marks a conversion by molar mass, not a printed value.

As to `CCCC[C@H](CN(O)C=O)C(=O)[C@@H](NC(=O)c1ccccc1)C(C)C`, the MIC against Staphylococcus aureus was found to be 3.2 µg/mL (≈ 9.18 µM); against Moraxella catarrhalis it was 0.4 µg/mL (≈ 1.15 µM); in the test on Streptococcus pneumoniae, 3.2 µg/mL (≈ 9.18 µM); against Haemophilus influenzae, 0.2 µg/mL (≈ 0.574 µM). On Peptide deformylase, it took 51 nM to reach half-maximal inhibition (IC50).

For `CCCC[C@H](CN(O)C=O)C(=O)[C@@H](NC(=O)Nc1ccccn1)C(C)C`, the MIC amounted to 0.8 µg/mL (≈ 2.2 µM) in the test on Staphylococcus aureus, 0.1 µg/mL (≈ 0.274 µM) in the test with Moraxella catarrhalis, 1.6 µg/mL (≈ 4.39 µM) against Streptococcus pneumoniae and 0.1 µg/mL (≈ 0.274 µM) in the test with Haemophilus influenzae. On Peptide deformylase, this compound had a half-maximal inhibitory concentration (IC50) of 43 nM.

Take `CCCC[C@H](CN(O)C=O)C(=O)[C@@H](NC(=O)Nc1ccccc1OC)C(C)C`: the MIC in the test with Staphylococcus aureus amounted to 0.8 µg/mL (≈ 2.03 µM); in the test with Moraxella catarrhalis it was 0.1 µg/mL (≈ 0.254 µM); with Streptococcus pneumoniae, 0.1 µg/mL (≈ 0.254 µM); with Haemophilus influenzae it was 0.2 µg/mL (≈ 0.508 µM). Moreover, on Peptide deformylase, it took 41 nM to reach half-maximal inhibition (IC50).

In the case of `CCCC[C@H](CN(O)C=O)C(=O)[C@@H](NC(=O)NC(C)C)C(C)C`, the MIC is 1.6 µg/mL (≈ 4.86 µM) in the test with Staphylococcus aureus, 0.8 µg/mL (≈ 2.43 µM) in the test with Moraxella catarrhalis, 0.4 µg/mL (≈ 1.21 µM) in the test with Streptococcus pneumoniae and 0.1 µg/mL (≈ 0.304 µM) in the test with Haemophilus influenzae. The same compound showed a half-maximal inhibitory concentration (IC50) against Peptide deformylase of 16 nM.

In the case of `CCCC[C@H](CN(O)C=O)C(=O)[C@@H](NC(=O)Nc1ccccc1)C(C)C`, the MIC with Staphylococcus aureus stood at 1.6 µg/mL (≈ 4.4 µM); in the test with Moraxella catarrhalis, 0.1 µg/mL (≈ 0.275 µM); against Streptococcus pneumoniae it was 0.4 µg/mL (≈ 1.1 µM); in the test on Haemophilus influenzae it was 0.4 µg/mL (≈ 1.1 µM). Further, the 50% inhibitory concentration (IC50) on Peptide deformylase was found to be 49 nM.

Turning to `CCCC[C@H](CN(O)C=O)C(=O)[C@@H](NC(=O)c1nccc2ccccc12)C(C)C`, the MIC with Staphylococcus aureus came out at 6.4 µg/mL (≈ 16 µM); against Moraxella catarrhalis it was 0.1 µg/mL (≈ 0.25 µM); against Streptococcus pneumoniae, 0.4 µg/mL (≈ 1 µM); in the test on Haemophilus influenzae, 0.4 µg/mL (≈ 1 µM). This compound registered an IC50 against Peptide deformylase of 5 nM.

Turning to `CCCC[C@H](CN(O)C=O)C(=O)[C@H](NC(=O)OC(C)(C)C)C(C)(C)C`, the MIC worked out at 100 µg/mL (≈ 279 µM) with Staphylococcus aureus, 0.1 µg/mL (≈ 0.279 µM) against Moraxella catarrhalis, 6.3 µg/mL (≈ 17.6 µM) in the test with Streptococcus pneumoniae and 3.2 µg/mL (≈ 8.93 µM) against Haemophilus influenzae. The compound also came in with a half-maximal inhibitory concentration (IC50) on Peptide deformylase of 603 nM.

`CCCC[C@H](CN(O)C=O)C(=O)[C@@H](NC(=O)C(C)C)C(C)C`: the MIC stood at 3.2 µg/mL (≈ 10.2 µM) against Staphylococcus aureus, 1.6 µg/mL (≈ 5.09 µM) against Moraxella catarrhalis, 0.8 µg/mL (≈ 2.54 µM) in the test with Streptococcus pneumoniae and 0.2 µg/mL (≈ 0.636 µM) against Haemophilus influenzae. Besides, the IC50 at Peptide deformylase was found to be 60 nM.

In the case of `CCCC[C@H](CN(O)C=O)C(=O)[C@@H](NC(=O)c1ccc2ccccc2n1)C(C)C`, the MIC was 0.4 µg/mL (≈ 1 µM) in the test on Staphylococcus aureus, 0.1 µg/mL (≈ 0.25 µM) in the test with Moraxella catarrhalis, 0.1 µg/mL (≈ 0.25 µM) in the test with Streptococcus pneumoniae and 0.2 µg/mL (≈ 0.501 µM) in the test on Haemophilus influenzae. Moreover, the IC50 against Peptide deformylase was determined as 8 nM.

For the compound `CCCC[C@H](CN(O)C=O)C(=O)[C@@H](NC(=O)OC(C)(C)C)C(C)C`, the MIC against Staphylococcus aureus was found to be 12.5 µg/mL (≈ 36.3 µM); against Moraxella catarrhalis, 0.1 µg/mL (≈ 0.29 µM); in the test with Streptococcus pneumoniae it was 1.6 µg/mL (≈ 4.65 µM); against Haemophilus influenzae, 1.6 µg/mL (≈ 4.65 µM). Besides, on Peptide deformylase, half-maximal inhibition (IC50) required 183 nM.

Consider `CCCC[C@H](CN(O)C=O)C(=O)[C@@H](NC(=O)NC1CCCC1)C(C)C`, for which the MIC against Staphylococcus aureus came to 1.6 µg/mL (≈ 4.5 µM); against Moraxella catarrhalis, 0.1 µg/mL (≈ 0.281 µM); with Streptococcus pneumoniae, 1.6 µg/mL (≈ 4.5 µM); against Haemophilus influenzae, 0.2 µg/mL (≈ 0.563 µM). Moreover, at Peptide deformylase, the IC50 is 10 nM.

`CCCC[C@H](CN(O)C=O)C(=O)[C@@H]1CCCN1C(=O)OC(C)(C)C`: the MIC came out at 12.5 µg/mL (≈ 36.5 µM) in the test with Staphylococcus aureus, 0.4 µg/mL (≈ 1.17 µM) with Moraxella catarrhalis, 6.3 µg/mL (≈ 18.4 µM) against Streptococcus pneumoniae and 0.4 µg/mL (≈ 1.17 µM) with Haemophilus influenzae. For the same compound, the IC50 against Peptide deformylase amounted to 169 nM.

`CCCC[C@H](CN(O)C=O)C(=O)[C@@H](NC(=O)Nc1ccccc1F)C(C)C`: the MIC is 0.4 µg/mL (≈ 1.05 µM) with Staphylococcus aureus, 0.1 µg/mL (≈ 0.262 µM) with Moraxella catarrhalis, 0.2 µg/mL (≈ 0.524 µM) with Streptococcus pneumoniae and 0.1 µg/mL (≈ 0.262 µM) against Haemophilus influenzae. Moreover, the midpoint of inhibition against Peptide deformylase, the IC50, lay at 41 nM.

On to `CCCC[C@H](CN(O)C=O)C(=O)[C@@H](NC(=O)c1cccc(OC)c1)C(C)C`, for which the MIC in the test on Staphylococcus aureus turned out to be 0.8 µg/mL (≈ 2.11 µM); in the test with Moraxella catarrhalis it was 0.8 µg/mL (≈ 2.11 µM); against Streptococcus pneumoniae, 0.2 µg/mL (≈ 0.528 µM); against Haemophilus influenzae, 0.2 µg/mL (≈ 0.528 µM). The compound further gave a half-maximal inhibitory concentration (IC50) at Peptide deformylase of 22 nM.

Take `COc1ccccc1NC(=O)N[C@@H](C(=O)N(CC(=O)NO)CC1CCCC1)C(C)(C)C`: the MIC against Staphylococcus aureus is 50 µg/mL (≈ 115 µM); with Moraxella catarrhalis it was 0.1 µg/mL (≈ 0.23 µM); against Streptococcus pneumoniae, 0.2 µg/mL (≈ 0.46 µM); against Haemophilus influenzae, 0.2 µg/mL (≈ 0.46 µM). Moreover, half-maximal inhibition against Peptide deformylase (IC50) was put at 29 nM.

In the case of `CCCC[C@H](CN(O)C=O)C(=O)[C@@H](NC(=O)c1ccncc1)C(C)C`, the MIC in the test on Staphylococcus aureus amounted to 1.6 µg/mL (≈ 4.58 µM); against Moraxella catarrhalis it was 0.1 µg/mL (≈ 0.286 µM); in the test on Streptococcus pneumoniae it was 0.4 µg/mL (≈ 1.14 µM); against Haemophilus influenzae, 0.1 µg/mL (≈ 0.286 µM). In addition, the IC50 against Peptide deformylase worked out at 52 nM.

As to `CCCC[C@H](CN(O)C=O)C(=O)[C@@H](NC(=O)c1cccnc1)C(C)C`, the MIC with Staphylococcus aureus came to 0.8 µg/mL (≈ 2.29 µM); in the test on Moraxella catarrhalis, 0.1 µg/mL (≈ 0.286 µM); with Streptococcus pneumoniae it was 0.2 µg/mL (≈ 0.572 µM); against Haemophilus influenzae, 0.1 µg/mL (≈ 0.286 µM). In addition, at Peptide deformylase, the half-inhibitory concentration (IC50) amounted to 73 nM.

For the compound `CCCC[C@H](CN(O)C=O)C(=O)[C@H](C)NC(=O)OC(C)(C)C`, the MIC against Staphylococcus aureus was found to be 12.5 µg/mL (≈ 39.5 µM); in the test on Moraxella catarrhalis it was 1.6 µg/mL (≈ 5.06 µM); with Streptococcus pneumoniae, 3.2 µg/mL (≈ 10.1 µM); in the test with Haemophilus influenzae, 0.8 µg/mL (≈ 2.53 µM). In addition, the half-inhibitory concentration (IC50) on Peptide deformylase stood at 330 nM.

As to `CCCC[C@H](CN(O)C=O)C(=O)[C@@H](NC(=O)c1cccc(F)c1)C(C)C`, the MIC was 1.6 µg/mL (≈ 4.37 µM) against Staphylococcus aureus, 1.6 µg/mL (≈ 4.37 µM) in the test with Moraxella catarrhalis, 0.4 µg/mL (≈ 1.09 µM) in the test with Streptococcus pneumoniae and 0.2 µg/mL (≈ 0.546 µM) against Haemophilus influenzae. In addition, on Peptide deformylase, 43 nM corresponded to half-maximal inhibition (IC50).

In the case of `CCCC[C@H](CN(O)C=O)C(=O)[C@@H](NC(=O)c1ccccn1)C(C)C`, the MIC is 1.6 µg/mL (≈ 4.58 µM) against Staphylococcus aureus, 0.1 µg/mL (≈ 0.286 µM) in the test with Moraxella catarrhalis, 0.2 µg/mL (≈ 0.572 µM) against Streptococcus pneumoniae and 0.1 µg/mL (≈ 0.286 µM) against Haemophilus influenzae. Besides, it took 117 nM to reach half-maximal inhibition on Peptide deformylase (IC50).

Source of the values: ChEMBL document CHEMBL1641371, “Peptide deformylase inhibitors with non-peptide scaffold: synthesis and structure-activity relationships” (Bioorg Med Chem Lett, 2011).
